Experimental data reported in ChEMBL document CHEMBL1137286, “Vialinin B, a novel potent inhibitor of TNF-alpha production, isolated from an edible mushroom, Thelephora vialis” (Bioorg Med Chem Lett, 2006).

Tested on: RBL-2H3
Assay: Inhibition of DNP7-BSA antigen-induced TNFalpha release in rat RBL-2H3 cells
Format: functional, cell-based

Row | SMILES | IC50 [nM]
1 | Oc1ccc(-c2c(O)c(O)c3c(oc4cc(O)c(O)cc43)c2O)cc1 [CYCLOLEUCOMELONE] | 3500
2 | O=C(Cc1ccccc1)Oc1c(-c2ccc(O)cc2)c(OC(=O)Cc2ccccc2)c2oc3cc(O)c(O)cc3c2c1OC(=O)Cc1ccccc1 [GANBAJUNIN B] | 5000
3 | C=CC[C@@H]1/C=C(\C)C[C@H](C)C[C@H](OC)[C@H]2O[C@@](O)(C(=O)C(=O)N3CCCC[C@H]3C(=O)O[C@H](/C(C)=C/[C@@H]3CC[C@@H](O)[C@H](OC)C3)[C@H](C)[C@@H](O)CC1=O)[C@H](C)C[C@@H]2OC [TACROLIMUS ANHYDROUS] | 0.25
4 | O=C(Cc1ccccc1)Oc1c(-c2ccc(O)cc2)c(O)c2oc3cc(O)c(O)cc3c2c1OC(=O)Cc1ccccc1 [VIALININ B] | 0.02
